Measurements: patent US12077503B2, “Substituted cyclic amides and their use as herbicides” (FMC CORPORATION, priority 2015, dated 2024)

Experiments:
Assay in all cases: Test C preemergence
Format in all cases: in vivo
[1] = test system: Galium (catchweed bedstraw, Galium aparine); details: for Plant response rating, Galium: scale 0 to 100, 0 no effect, 100 complete control
Procedure, shortened: (§1)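 Scores of 0 to 100 reflect visual comparison with control plants, where 0 means no effect and 100 complete control, made 13 to 15 d after treatment. Application was preemergence to seeds in loam-sand soil or postemergence to plants 2 to 18 cm tall in peat-based mix, using a surfactant-containing solvent formulation.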

[2] = test system: barnyardgrass (Echinochloa crus-galli); details: for Plant response rating, Barnyardgrass: scale 0 to 100, 0 no effect, 100 complete control
Procedure, shortened: as §1

[3] = test system: blackgrass (Alopecurus myosuroides); details: for Plant response rating, Blackgrass: scale 0 to 100, 0 no effect, 100 complete control
Procedure, shortened: as §1

corn (Zea mays) = details: for Plant response rating, Corn: scale 0 to 100, 0 no effect, 100 complete control
Procedure, shortened: as §1

[4] = test system: crabgrass, large (large crabgrass, Digitaria sanguinalis); details: for Plant response rating, Crabgrass, Large: scale 0 to 100, 0 no effect, 100 complete control
Procedure, shortened: as §1

[5] = test system: foxtail, giant (giant foxtail, Setaria faberii); details: for Plant response rating, Foxtail, Giant: scale 0 to 100, 0 no effect, 100 complete control
Procedure, shortened: as §1

[6] = test system: johnsongrass (Sorghum halepense); details: for Plant response rating, Johnsongrass: scale 0 to 100, 0 no effect, 100 complete control
Procedure, shortened: as §1

[7] = test system: lambsquarters (Chenopodium album); details: for Plant response rating, Lambsquarters: scale 0 to 100, 0 no effect, 100 complete control
Procedure, shortened: as §1

[8] = test system: morningglory (Ipomoea coccinea); details: for Plant response rating, Morningglory: scale 0 to 100, 0 no effect, 100 complete control
Procedure, shortened: as §1

[9] = test system: nutsedge, yellow (yellow nutsedge, Cyperus esculentus); details: for Plant response rating, Nutsedge, Yellow: scale 0 to 100, 0 no effect, 100 complete control
Procedure, shortened: as §1

[10] = test system: oilseed rape (Brassica napus); details: for Plant response rating, Oilseed Rape: scale 0 to 100, 0 no effect, 100 complete control
Procedure, shortened: as §1

[11] = test system: pigweed (Amaranthus retroflexus); details: for Plant response rating, Pigweed: scale 0 to 100, 0 no effect, 100 complete control
Procedure, shortened: as §1

[12] = test system: ragweed (common ragweed, Ambrosia elatior); details: for Plant response rating, Ragweed: scale 0 to 100, 0 no effect, 100 complete control
Procedure, shortened: as §1

[13] = test system: ryegrass, Italian (Italian ryegrass, Lolium multiflorum); details: for Plant response rating, Ryegrass, Italian: scale 0 to 100, 0 no effect, 100 complete control
Procedure, shortened: as §1

soybean (Glycine max) = details: for Plant response rating, Soybean: scale 0 to 100, 0 no effect, 100 complete control
Procedure, shortened: as §1

[14] = test system: velvetleaf (Abutilon theophrasti); details: for Plant response rating, Velvetleaf: scale 0 to 100, 0 no effect, 100 complete control
Procedure, shortened: as §1

[15] = test system: waterhemp (common waterhemp, Amaranthus rudis); details: for Plant response rating, Waterhemp: scale 0 to 100, 0 no effect, 100 complete control
Procedure, shortened: as §1

[16] = test system: wheat (winter wheat, Triticum aestivum); details: for Plant response rating, Wheat: scale 0 to 100, 0 no effect, 100 complete control
Procedure, shortened: as §1

[17] = 31 g ai/ha, 0 is no effect, 100 is complete control

O=C1NCC(c2cccc(C(F)(F)F)c2F)C1C(=O)Nc1cccc(F)c1F (stereo not drawn) [Compound 591]
Plant response rating (scale of 0 to 100), Galium [1, 17]: 5
Plant response rating, Galium ([1]; 62 g ai/ha): 50
Plant response rating, Galium ([1]; 125 g ai/ha): 50
Plant response rating, Galium ([1]; 250 g ai/ha): 80
Plant response rating (scale of 0 to 100), Barnyardgrass [2, 17]: 90
Plant response rating, Barnyardgrass ([2]; 62 g ai/ha): 90
Plant response rating, Barnyardgrass ([2]; 125 g ai/ha): 95
Plant response rating, Barnyardgrass ([2]; 250 g ai/ha): 95
Plant response rating (scale of 0 to 100), Blackgrass [3, 17]: 30
Plant response rating, Blackgrass ([3]; 62 g ai/ha): 85
Plant response rating, Blackgrass ([3]; 125 g ai/ha): 90
Plant response rating, Blackgrass ([3]; 250 g ai/ha): 90
Plant response rating (scale of 0 to 100), Corn (corn (Zea mays); [17]): 45
Plant response rating, Corn (corn (Zea mays); 62 g ai/ha): 70
Plant response rating, Corn (corn (Zea mays); 125 g ai/ha): 60
Plant response rating, Corn (corn (Zea mays); 250 g ai/ha): 80
Plant response rating (scale of 0 to 100), Crabgrass, Large [4, 17]: 90
Plant response rating, Crabgrass, Large ([4]; 62 g ai/ha): 90
Plant response rating, Crabgrass, Large ([4]; 125 g ai/ha): 90
Plant response rating, Crabgrass, Large ([4]; 250 g ai/ha): 95
Plant response rating (scale of 0 to 100), Foxtail, Giant [5, 17]: 85
Plant response rating, Foxtail, Giant ([5]; 62 g ai/ha): 90
Plant response rating, Foxtail, Giant ([5]; 125 g ai/ha): 90
Plant response rating, Foxtail, Giant ([5]; 250 g ai/ha): 95
Plant response rating (scale of 0 to 100), Johnsongrass [6, 17]: 35
Plant response rating, Johnsongrass ([6]; 62 g ai/ha): 55
Plant response rating, Johnsongrass ([6]; 125 g ai/ha): 75
Plant response rating, Johnsongrass ([6]; 250 g ai/ha): 85
Plant response rating (scale of 0 to 100), Lambsquarters [7, 17]: 10
Plant response rating, Lambsquarters ([7]; 62 g ai/ha): 20
Plant response rating, Lambsquarters ([7]; 125 g ai/ha): 35
Plant response rating, Lambsquarters ([7]; 250 g ai/ha): 70
Plant response rating (scale of 0 to 100), Morningglory [8, 17]: 10
Plant response rating, Morningglory ([8]; 62 g ai/ha): 30
Plant response rating, Morningglory ([8]; 125 g ai/ha): 40
Plant response rating, Morningglory ([8]; 250 g ai/ha): 65
Plant response rating (scale of 0 to 100), Nutsedge, Yellow [9, 17]: 0
Plant response rating, Nutsedge, Yellow ([9]; 62 g ai/ha): 0
Plant response rating, Nutsedge, Yellow ([9]; 125 g ai/ha): 0
Plant response rating, Nutsedge, Yellow ([9]; 250 g ai/ha): 0
Plant response rating (scale of 0 to 100), Oilseed Rape [10, 17]: 5
Plant response rating, Oilseed Rape ([10]; 62 g ai/ha): 20
Plant response rating, Oilseed Rape ([10]; 125 g ai/ha): 30
Plant response rating, Oilseed Rape ([10]; 250 g ai/ha): 85
Plant response rating (scale of 0 to 100), Pigweed [11, 17]: 10
Plant response rating, Pigweed ([11]; 62 g ai/ha): 45
Plant response rating, Pigweed ([11]; 125 g ai/ha): 60
Plant response rating, Pigweed ([11]; 250 g ai/ha): 75
Plant response rating (scale of 0 to 100), Ragweed [12, 17]: 0
Plant response rating, Ragweed ([12]; 62 g ai/ha): 20
Plant response rating, Ragweed ([12]; 125 g ai/ha): 35
Plant response rating, Ragweed ([12]; 250 g ai/ha): 70
Plant response rating (scale of 0 to 100), Ryegrass, Italian [13, 17]: 0
Plant response rating, Ryegrass, Italian ([13]; 62 g ai/ha): 10
Plant response rating, Ryegrass, Italian ([13]; 125 g ai/ha): 35
Plant response rating, Ryegrass, Italian ([13]; 250 g ai/ha): 75
Plant response rating (scale of 0 to 100), Soybean (soybean (Glycine max); [17]): 0
Plant response rating, Soybean (soybean (Glycine max); 62 g ai/ha): 0
Plant response rating, Soybean (soybean (Glycine max); 125 g ai/ha): 0
Plant response rating, Soybean (soybean (Glycine max); 250 g ai/ha): 0
Plant response rating (scale of 0 to 100), Velvetleaf [14, 17]: 0
Plant response rating, Velvetleaf ([14]; 62 g ai/ha): 0
Plant response rating, Velvetleaf ([14]; 125 g ai/ha): 20
Plant response rating, Velvetleaf ([14]; 250 g ai/ha): 20
Plant response rating (scale of 0 to 100), Waterhemp [15, 17]: 5
Plant response rating, Waterhemp ([15]; 62 g ai/ha): 30
Plant response rating, Waterhemp ([15]; 125 g ai/ha): 65
Plant response rating, Waterhemp ([15]; 250 g ai/ha): 70
Plant response rating (scale of 0 to 100), Wheat [16, 17]: 0
Plant response rating, Wheat ([16]; 62 g ai/ha): 10
Plant response rating, Wheat ([16]; 125 g ai/ha): 30
Plant response rating, Wheat ([16]; 250 g ai/ha): 70
